Experimental data reported in patent US20220193092A1, “PROGESTOGEN FOR USE IN THE TREATMENT OF CYTOKINE RELEASE SYNDROME” (Shenzhen Evergreen Therapeutics Co,. Ltd., priority 2020, published 2022).

Legend:
Format in all cases: cell-based
[1] = test system: human peripheral blood mononuclear cells (PBMCs); test: T-cell inflammation inhibition assay using anti-CD28 super agonist (ANC28.1/5D10): cytokine release from PBMCs; settings: PBMCs stimulated by anti-CD28 antibody
Method: (§1) The human peripheral blood mononuclear cells (PBMCs) used in the following experiments are derived from Eurofins Discovery (St Charles, Mo., USA) and are a mixture of PBMCs from three healthy human subjects (Lot#98, 99, 101).
1) T-cell Inflammation Inhibition Assay Protocol Using Anti-CD28 Super Agonists First Day
High-binding enzyme-labeled plates are coated with anti-CD28 super agonists (clone ANC28.1/5D10, 2 μg/well) dissolved in PBS 1× and incubated overnight in a biosafety cabinet with lid open and immobilized by air-dry. Cryopreserved PBMCs are drip thawed, pooled and diluted to an appropriate density, and then are inoculated into a U bottom 96-well polypropylene plate (1.2×10^5 cells per well) with 228 μL per well of culture medium (RPMI 1640, 10% heat inactivated fetal bovine serum, 1% penicillin/streptomycin, 2 mM L-glutamine). The cells are incubated under 5% CO2 at 37° C. for 1 hour before adding HPC. HPC is dissolved in 50% ethanol & PBS, and is further diluted to 20× with cell culture medium. Then HPC is added to the PBMCs in volumes of 12 μL (1×) in triplicate and incubated under 5% CO2 at 37° C. for 16 hours.
After 16 hours of incubation, 200 μL of cells (1×10^5) treated with HPC or a control reagent are transferred to the anti-CD28 coated enzyme-labeled plates, and incubated under 5% CO2 at 37° C. for 48 hours. For the negative control groups, 200 μL of cells (1×10^5) are transferred to an enzyme-labeled plate coated with anti-CD28 or isotype IgG1. After 48 hours of incubation, the enzyme-labeled plates are centrifuged at […] for 10 minutes. Cell culture supernatants are collected and stored at −80° C. until use in analysis.
(§2) The cytokine level of each sample is determined using Luminex methodology and carried out in accordance with the manufacturer's protocol. Cytokine levels in the cell culture supernatants are determined in accordance with the manufacturer's protocol using Human Cytokine/Chemokine Magnetic bead panel from Millipore Sigma (catalogue No. HCYTOMAG-60K) with standards range 3.2, 16, 80, 400, 2000, […].
(§3) The following cytokines are measured: IFN-γ, IL-2, IL-6, IL-10 and TNFα.

[2] = test system: human peripheral blood mononuclear cells (PBMCs); test: T-cell inflammation inhibition assay using anti-CD3 (OKT3): cytokine release from PBMCs; settings: PBMCs stimulated by OKT3
Method: as §1
(§4) 2) T-Cell Inflammation Inhibition Assay Protocol Using Anti-CD3 (OKT3) or PHA
(§5) Cryopreserved PBMCs are drip thawed, pooled and diluted to an appropriate density, and inoculated into a 96-well polypropylene plate (2×10^5 cells per well) with 150 μL per well of culture medium (RPMI 1640, 10% heat inactivated fetal bovine serum, 1% penicillin/streptomycin, 2 mM L-glutamine). The cells are incubated under 5% CO2 at 37° C. for 1 hour before adding HPC. HPC is dissolved in 50% ethanol & PBS, and is further diluted to 20× with cell culture medium. Then HPC is added to the PBMCs in volumes of 10 μL (1×) in triplicate and incubated under 5% CO2 at 37° C. for 16 hours.
(§6) After incubation for 16 hours, 40 μL of anti-CD3 (OKT3, 3 μg/well or 15 μg/mL) or PHA (10 μg/mL) is added to the wells according to the plate layout. The cells are incubated under 5% CO2 at 37° C. for 48 hours. Thereafter, the plates are centrifuged at 200×g for 10 minutes. Cell culture supernatants are collected and stored at −80° C. until use in analysis.
as §2, §3

[3] = test system: human peripheral blood mononuclear cells (PBMCs); test: T-cell inflammation inhibition assay using PHA: cytokine release from PBMCs
Method: as §1, §4, §5, §6, §2, §3

[4] = 16 h HPC pre-incubation, 48 h stimulation, Luminex
[5] = PBMCs stimulated by PHA (10 μg/mL), 16 h HPC pre-incubation, 48 h stimulation, Luminex

## CCCCCC(=O)O[C@]1(C(C)=O)CC[C@H]2[C@@H]3CCC4=CC(=O)CC[C@]4(C)[C@H]3CC[C@@]21C [HPC, hydroxyprogesterone caproate]
[1]
  inhibition effect on IL-10 and IFN-γ release: concentration dependence: concentration dependent
[1]; [4]
  release of IFN-γ: significantly inhibited
  release of IL-6: significantly inhibited
  release of IL-10: significantly inhibited
  release of TNF-α: significantly inhibited
[2]
  inhibition effect on IL-6 and IL-10 release: concentration dependence: concentration dependent
[2]; [4]
  release of IFN-γ: significantly inhibited
  release of IL-6: significantly inhibited
  release of IL-10: significantly inhibited
[3]; PBMCs stimulated by PHA
  inhibition of IL-2, IL-6, IL-10 and TNF-α release: concentration dependence: concentration dependent
[3]; [5]
  release of IL-2: significantly inhibited
  release of IL-6: significantly inhibited
  release of IL-10: significantly inhibited
  release of TNF-α: significantly inhibited
